Experimental data: patent publication US20260224547A1, “COMPOSITIONS COMPRISING ANATABINE AND USES THEREOF” (Philip Morris Products S.A., priority 2021, published 2026)

System: HEK-293, SH-SY5Y, primary human keratinocytes, THP-1 differentiated with PMA
Test: Transcriptomics (microarray) after anatabine treatment of 4 cell systems
Type: cell-based
Settings: for Fold Change TXNRD1: gene TXNRD1; for Fold Change ZBTB21: gene ZBTB21; for Fold Change ZFAND2A: gene ZFAND2A
Description: To investigate the signalling pathways triggered by anatabine, 4 cell systems (HEK-293, SH-SY5Y, primary human keratinocytes, THP-1 differentiated with PMA) were treated with 4 concentrations of anatabine (100, 200, 300, 400 μM) for 6 hours, after which transcriptomics measurements were performed.
HEK-293 is a human embryonic kidney cell line devoid of nicotinic receptors. It can be relatively easily transfected and therefore used as a tool to express various subtypes of nicotinic receptors or reporter genes such as NRF2-driven luciferase, which were also used in this study. HEK-293 were seeded in a cell culture medium consisting of EMEM, 10% FBS, 1% NEAA, 1% Sodium Pyruvate and 1% PenStrep. 60,000 cells were seeded per well of a 96-well plate.
SH-SY5Y is a human bone marrow neuroblastoma cell line that has been used by researchers to investigate the potential anti-inflammatory effect of anatabine. SH-SY5Y were seeded in a cell culture medium consisting of 50% EMEM and 50% Ham's F12 nutrient and including 10% FBS, 1% PenStrep and 1% L-glutamine. 15,000 cells were seeded per well of a 96-well plate.
Primary human keratinocytes have been included as a relevant cell system for skin. The batch of keratinocytes was selected in order to have healthy, non-smoker, 20-60 years old, Caucasian donors. The keratinocytes were seeded in a cell culture medium consisting of KGM-Gold Keratinocyte Growth Medium. 17,500 cells were seeded per well of a 96-well plate.
The human leukaemia-derived monocytic cell line THP-1, is the most widely used in vitro model for primary human macrophage investigations. THP-1 cells were seeded in a cell culture medium consisting of RPMI, 10% FBS and 1% PenStrep and in the presence of 40 ng/ml phorbol 12-myristate 13-acetate (PMA). 100,000 cells were seeded per well of a 96-well plate, having a total volume of […] per well. 48 hours later the medium was changed to the same culture medium but without PMA, and the culture was left to rest for 24 h before treatment.
All four cell systems were seeded in 96 well plates at a total volume of 190 μl per well to allow for a 20× compound stimulation with a volume of 10 μL. 24 hours after seeding—or in the case of THP-1, 24 h after changing to non-PMA medium—four cell systems were stimulated with anatabine (prepared at 20× the corresponding target concentration) to obtain a final molar concentration of 100, 200, 300, 400 μM anatabine.
In order to generate the transcriptomics data, the four cell systems were exposed to various concentrations of anatabine (100, 200, 300, 400 μM) for 6 hours. The transcriptome of the cells was analysed by a microarray-based analysis.
The cells were lysed using RLT BUFFER (Qiagen Hilden, Germany) for all cell types except the keratinocytes which were lysed with QIAZOL LYSIS REAGENT (Qiagen). RNA isolation was performed with RNEASY MICRO KIT (Qiagen). RNA quantification was assessed with a NANODROP 1000 (ThermoFisher Waltham, MA, USA) and quality of the total RNA was verified acquiring a profile with a 2100 BIOANALYZER (Agilent Technologies, Santa Clara, CA, USA), requiring an RIN number greater than 6.0. 50 ng of total RNA were processed as described in the TECAN/NUGEN OVATION RNA AMPLIFICATION SYSTEM V2 (Tecan Mannedorf, Switzerland). Human Genome U133 Plus 2.0 array were used for hybridization on a THERMOFISHER OVEN 645, washed on THERMOFISHER GENECHIP™ FLUIDICS STATIONS 450DX (protocol FS450-0004) and scanned on a THERMOFISHER GENECHIP™ SCANNER 3000 7G.
Quality control check of all chips was done with the BIOCONDUCTOR affyPLM R package version 1.64. Following quality control procedures, differential gene expression analysis was performed using the BIOCONDUCTOR LIMMA R package version 3.44.3. Pairwise comparisons at the gene level, called systems response profiles (SRP), were computed by comparing each concentration-treatment with its respective vehicle control. […]

[1] = cell system THP1, anatabine 200 μM
[2] = cell system THP1, anatabine 300 μM
[3] = cell system THP1, anatabine 400 μM
[4] = cell system HEK293, anatabine 100 μM
[5] = cell system HEK293, anatabine 200 μM
[6] = cell system HEK293, anatabine 300 μM
[7] = cell system HEK293, anatabine 400 μM
[8] = cell system KEAT, anatabine 100 μM
[9] = cell system KEAT, anatabine 200 μM
[10] = cell system KEAT, anatabine 300 μM
[11] = cell system KEAT, anatabine 400 μM
[12] = cell system SHSY5Y, anatabine 100 μM
[13] = cell system SHSY5Y, anatabine 200 μM
[14] = cell system SHSY5Y, anatabine 300 μM
[15] = cell system SHSY5Y, anatabine 400 μM
[16] = cell system THP1, anatabine 100 μM

## C1=CCC(c2cccnc2)NC1 (racemic) [anatabine, 1,2,3,6-Tetrahydro-2,3′-bipyridine]
G0S2 gene, SHSY5Y, anatabine 200 μM
  Fold Change: −0.07408
G0S2 gene, SHSY5Y, anatabine 300 μM
  Fold Change: −0.1621
G0S2 gene, SHSY5Y, anatabine 400 μM
  Fold Change: −0.6623
G0S2 gene, THP1, anatabine 100 μM
  Fold Change: −0.1613
G0S2 gene, THP1, anatabine 200 μM
  Fold Change: −0.07473
G0S2 gene, THP1, anatabine 300 μM
  Fold Change: −0.2674
G0S2 gene, THP1, anatabine 400 μM
  Fold Change: −0.3675
GCLM gene, HEK293, anatabine 100 μM
  Fold Change: 0.1086
GCLM gene, HEK293, anatabine 200 μM
  Fold Change: 0.5976
GCLM gene, HEK293, anatabine 300 μM
  Fold Change: 0.7652
GCLM gene, HEK293, anatabine 400 μM
  Fold Change: 1.165
GCLM gene, KEAT, anatabine 100 μM
  Fold Change: 0.5698
GCLM gene, KEAT, anatabine 200 μM
  Fold Change: 0.8549
GCLM gene, KEAT, anatabine 300 μM
  Fold Change: 1.582
GCLM gene, KEAT, anatabine 400 μM
  Fold Change: 1.567
GCLM gene, SHSY5Y, anatabine 100 μM
  Fold Change: 0.3907
GCLM gene, SHSY5Y, anatabine 200 μM
  Fold Change: 0.7053
GCLM gene, SHSY5Y, anatabine 300 μM
  Fold Change: 1.629
GCLM gene, SHSY5Y, anatabine 400 μM
  Fold Change: 2.292
GCLM gene, THP1, anatabine 100 μM
  Fold Change: 0.2992
GCLM gene, THP1, anatabine 200 μM
  Fold Change: 0.7816
GCLM gene, THP1, anatabine 300 μM
  Fold Change: 1.645
GCLM gene, THP1, anatabine 400 μM
  Fold Change: 2.36
HMOX1 gene, HEK293, anatabine 100 μM
  Fold Change: 0.7745
HMOX1 gene, HEK293, anatabine 200 μM
  Fold Change: 1.877
HMOX1 gene, HEK293, anatabine 300 μM
  Fold Change: 2.27
HMOX1 gene, HEK293, anatabine 400 μM
  Fold Change: 3.142
HMOX1 gene, KEAT, anatabine 100 μM
  Fold Change: 3.914
HMOX1 gene, KEAT, anatabine 200 μM
  Fold Change: 4.283
HMOX1 gene, KEAT, anatabine 300 μM
  Fold Change: 5.733
HMOX1 gene, KEAT, anatabine 400 μM
  Fold Change: 5.633
HMOX1 gene, SHSY5Y, anatabine 100 μM
  Fold Change: 0.8699
Four cell lines, 100, 200, 300, 400 μM for 6 hours
  NRF2 target genes (HMOX1, GCLM, NQO1, TXNRD1) mRNA: dose-dependent increase
[1]
  Fold Change TXNRD1: 0.4137
  Fold Change ZBTB21: 0.2576
  Fold Change ZFAND2A: 0.2497
[2]
  Fold Change TXNRD1: 0.8364
  Fold Change ZBTB21: 0.3746
  Fold Change ZFAND2A: 0.5677
[3]
  Fold Change TXNRD1: 1.246
  Fold Change ZBTB21: 0.5865
  Fold Change ZFAND2A: 1.236
[4]
  Fold Change ZBTB21: 0.1286
  Fold Change ZFAND2A: 0.1376
[5]
  Fold Change ZBTB21: 0.3704
  Fold Change ZFAND2A: 0.3375
[6]
  Fold Change ZBTB21: 0.3353
  Fold Change ZFAND2A: 0.4979
[7]
  Fold Change ZBTB21: 0.6783
  Fold Change ZFAND2A: 0.7014
[8]
  Fold Change ZBTB21: 0.4558
  Fold Change ZFAND2A: 0.2592
[9]
  Fold Change ZBTB21: 0.5643
  Fold Change ZFAND2A: 0.4658
[10]
  Fold Change ZBTB21: 0.9994
  Fold Change ZFAND2A: 3.354
[11]
  Fold Change ZBTB21: 0.8602
  Fold Change ZFAND2A: 1.766
[12]
  Fold Change ZBTB21: 0.1782
  Fold Change ZFAND2A: 0.09166
[13]
  Fold Change ZBTB21: 0.5134
  Fold Change ZFAND2A: 0.3919
[14]
  Fold Change ZBTB21: 0.6287
  Fold Change ZFAND2A: 0.5328
[15]
  Fold Change ZBTB21: 0.9685
  Fold Change ZFAND2A: 1.066
[16]
  Fold Change ZBTB21: −0.01334
  Fold Change ZFAND2A: 0.1252
